53 molecules from PubChem BioAssay AID1996 can be followed below.

Converted amounts (≈) assume the structure as drawn.

For this series the following is noted: buffer; pH 7.4; 200.0 µM.
As usually defined, the solubility (kinetic) is the concentration staying in solution when a stock, usually in DMSO, is diluted into the medium. Molecule `Cc1ccc(S(=O)(=O)Nc2nc3ccc(N)cc3s2)cc1` came in with a kinetic solubility of 45.8 µg/mL (≈ 143 µM).
Molecule `CC1=C(C(=O)OCCOC(C)C)C(c2cccc3ccccc23)NC(=O)N1` (stereo not drawn) came in with a solubility (kinetic) of 4.6 µg/mL (≈ 12.5 µM).
`O=C(O)c1ccc(N2CCc3ccccc32)c([N+](=O)[O-])c1` gave a solubility (kinetic) above 42.6 µg/mL.
`CC(CN1CCN(C)CC1)OC(=O)c1ccc(F)cc1.Cl` (stereo not drawn) displayed a solubility (kinetic) above 47.5 µg/mL.
Molecule `COc1cc(OC)c(C(=O)Nc2ccncc2)cc1OC` gave a kinetic solubility of 42.6 µg/mL (≈ 148 µM).
As to `COc1ccc(C(=O)NC(C)c2ccc(-n3ccnc3)cc2)c(OC)c1` (stereo not drawn), the solubility (kinetic) is above 52.7 µg/mL.
The molecule `C=CCn1c(O)c(C=Nc2ccc(CN3CCCCC3)cc2)c(=O)[nH]c1=S` came in with a kinetic solubility of 51.8 µg/mL (≈ 135 µM).
In turn, `O=c1[nH]c2ccccc2nc1CCc1ccccc1` returned a solubility (kinetic) of 1.4 µg/mL (≈ 5.59 µM).
The molecule `Cc1oc(-c2ccccc2)cc1C(=O)NCc1ccncc1` displayed a kinetic solubility of 36.7 µg/mL (≈ 126 µM).
Turning to `C=Cn1c(C(=O)O)ccc1-c1ccc(OC)cc1`, the solubility (kinetic) was above 36.5 µg/mL.
In the case of `COc1ccc(CN(C)C(=O)CCl)cc1`, the kinetic solubility is above 34.2 µg/mL.
As for `CCCNc1nc(N2CCCC2)nc(N2CCCC2)n1`, the solubility (kinetic) stood at 33.6 µg/mL (≈ 122 µM).
Molecule `CC(OC(=O)c1cccc(N(C)C)c1)C(=O)N1CCc2ccccc2C1` (stereo not drawn) showed a kinetic solubility of 37.3 µg/mL (≈ 106 µM).
The molecule `CC(OC(=O)c1ccco1)C(=O)NCc1ccc2c(c1)OCO2` (stereo not drawn) displayed a kinetic solubility above 47.6 µg/mL.
For `CC(=O)Nc1ccc(-c2nc3ccccc3o2)cc1` the value was 1.3 µg/mL (≈ 5.15 µM).
As for `Cc1ccc(CNC(=O)Nc2ccccc2)n1C`, the kinetic solubility is 31.6 µg/mL (≈ 130 µM). This solubility kinetic is about 24-fold higher than that of the molecule before.
`N#Cc1cnc(Oc2ccc(Cl)cc2)nc1N` yielded a solubility (kinetic) of 4.3 µg/mL (≈ 17.4 µM). This solubility kinetic is about 7.3-fold lower than that of the molecule before.
`O=C(COC(=O)Cc1c(F)cccc1Cl)NCc1ccc2c(c1)OCO2`: the kinetic solubility came out at 46.5 µg/mL (≈ 122 µM).
`CC(C)CC(=O)Nc1ccc(C(=O)CN2CCC(C)CC2)cc1` yielded a kinetic solubility of 39.4 µg/mL (≈ 125 µM).
In turn, `CSC(=Nc1ccccc1)C(C#N)c1nc2ccccc2[nH]1` (stereo not drawn) showed a kinetic solubility of 0.3 µg/mL (≈ 0.979 µM). Against the preceding molecule, the solubility kinetic is about 130-fold lower.
In turn, `CC1CCN(C(=O)CN(c2cccc(F)c2)S(C)(=O)=O)CC1` returned a kinetic solubility above 49.3 µg/mL.
`COC(=O)c1ccc(OC(=O)c2cccnc2SC)cc1` had a kinetic solubility below 0.6 µg/mL.
On to `CC1CCCCN1C(=O)CCn1c(=O)oc2ccccc21` (stereo not drawn), for which the kinetic solubility is above 43.3 µg/mL.
In the case of `O=C1CN=C(c2ccccc2)c2ccccc2N1`, the kinetic solubility is 27.2 µg/mL (≈ 115 µM).
For `CC(=O)Nc1ccc(OCC(=O)NC(C)c2ccc(F)cc2)cc1` (stereo not drawn) the value was above 49.6 µg/mL; for `CC(=O)Oc1cccc(-c2nc3ccccc3c(=O)o2)c1`, 7.9 µg/mL (≈ 28.1 µM); for `COc1ccccc1C(=O)OCc1cc(=O)n2ccsc2n1`, above 47.4 µg/mL.
`COc1cccc(CNC(=O)CCCNC(=O)c2ccc(Cl)cc2)c1` displayed a solubility (kinetic) of 37.8 µg/mL (≈ 105 µM).
With `CC(=O)NC(Cc1c[nH]c2ccccc12)C(=O)NCc1ccco1` (stereo not drawn), the kinetic solubility is above 48.8 µg/mL.
The molecule `Cc1sc2ncnc(SCC(=O)NC(C)(C)C)c2c1C` displayed a solubility (kinetic) of 19.3 µg/mL (≈ 62.4 µM).
For `Cc1ccc2c(c1)oc(=O)n2CC(=O)c1ccccc1` the value was 6.5 µg/mL (≈ 24.3 µM).
For `CNC(=O)COc1ccc(S(=O)(=O)Nc2ccc(C)cc2)cc1` the value was above 50.2 µg/mL; for `COc1cc(NC(=O)CSc2nncn2C)cc(OC)c1OC`, above 50.8 µg/mL.
In turn, `CCC(=O)Nc1ccc(C(=O)CSc2nc(N)cc(N)n2)cc1` had a solubility (kinetic) of 48.3 µg/mL (≈ 146 µM).
`CC(=O)c1ccc(NC(=O)C(C)O/N=C(\N)c2ccccc2)cc1` (stereo not drawn) showed a kinetic solubility of 45.5 µg/mL (≈ 140 µM).
`CNC(=O)c1oc(-c2ccc(Cl)cc2)nc1C` displayed a kinetic solubility above 37.6 µg/mL.
The molecule `O=C1Nc2ccccc2OCc2c1cccc2[N+](=O)[O-]` displayed a kinetic solubility of 3.9 µg/mL (≈ 14.4 µM).
For the molecule `Cc1cc2nc3n(c2cc1C)CCCN3`, the kinetic solubility is above 30.2 µg/mL.
On to `COc1ccc(Nc2cc(Sc3ccc(OC)cc3)ncn2)cc1`, for which the solubility (kinetic) stood at 4.6 µg/mL (≈ 13.6 µM).
Regarding `CCc1ccc(C(=O)CSc2nc(N)cc(=O)[nH]2)cc1`, the solubility (kinetic) worked out at 14.2 µg/mL (≈ 49.1 µM).
For `COc1nc2ccccc2nc1N1CCN(C)CC1` the value was 38.4 µg/mL (≈ 149 µM); for `CC1CN(C(=O)c2cccs2)CC(C)O1` (stereo not drawn), 32.4 µg/mL (≈ 144 µM); for `COc1ccc(/C=C(\C#N)C(=O)N2COCC2(C)C)cc1`, above 42.9 µg/mL.
The result for `O=C(NCC(c1ccco1)N1CCOCC1)c1c(F)cccc1F` (stereo not drawn) reads above 50.5 µg/mL; that for `CC1(C)CNc2cc(N)ccc2S1`, 26.3 µg/mL (≈ 135 µM); that for `O=S(=O)(NC1CCSc2ccccc21)c1ccc(Cl)nc1` (stereo not drawn), 11.6 µg/mL (≈ 34 µM).
For `NC(=S)Nc1cc(Cl)ccc1Cl`, the kinetic solubility is 30.2 µg/mL (≈ 137 µM). This solubility kinetic is about 2.6-fold higher than that of the molecule before.
For `O=C1CSC2(N1)C1CC3CC(C1)CC2C3` (stereo not drawn) the value was 12.5 µg/mL (≈ 56 µM); for `CCC1CCCCN1Cc1ccc(N)cc1` (stereo not drawn), above 32.8 µg/mL.
The molecule `COc1cc(C2NC(=O)NC(C)=C2C(C)=O)ccc1O` (stereo not drawn) had a kinetic solubility above 41.4 µg/mL.
The result for `Cc1ccc(N2C(=O)C(Cl)=C(N3CCOCC3)C2=O)c(C)c1` reads 36.3 µg/mL (≈ 113 µM); that for `O=C(CSc1ccc(F)cc1)N1CCOCC1`, above 38.3 µg/mL; that for `Nc1nc2ccc(C(=O)Nc3ccc(N4CCOCC4)cc3)cc2s1`, 8.7 µg/mL (≈ 24.5 µM).
